In patent US20040209775A1, “Herbicidal composition” (priority 2001, published 2004):

How the values were obtained:
Test in all cases: Post-emergence test, greenhouse
Assay type in all cases: in vivo
Kochia scoparia = conditions: I1 250, triasulfuron 3.5, mixture 250 + 3.75 g a.i./ha, evaluation 20 days after application
Description: (§1) The herbicidal action to be expected We for a given combination of two herbicides can be calculated as follows (see COLBY, S. R., “Calculating synergistic and antagonistic response of herbicide combinations”, Weeds 15, pages 20-22, 1967):
(§2) Post-emergence application of mixtures of a herbicide of formula I wherein R is CH3; R1 is 4-fluorine; R2 is 3-acetonitrile; and R3 and R4 are hydrogen (=herbicide no. 11) with the co-herbicide dicamba at 500 g/ha and 30 g/ha, respectively, in Table B1, and of a herbicide of formula I wherein R is CH3; R1 is 4-fluorine; R2 is 3-acetonitrile; and R3 and R4 are hydrogen (=herbicide no. I1) with the co-herbicide triasulfuron at 250 g/ha and 3.75 g.ha, respectively, in Table B2.
(§3) The test plants are grown to the 2- to 3-leaf stage in plastics pots under greenhouse conditions. A standard soil is used as cultivation substrate. At the 2- to 3-leaf stage, the herbicides are applied to the test plants on their own and as a mixture. The application is carried out using an aqueous suspension of the test compounds in 500 litres of water/ha. The rates of application depend on the optimum doses ascertained under field conditions and greenhouse conditions. […]

hard wheat = conditions: I1 250, triasulfuron 3.5, mixture 250 + 3.75 g a.i./ha, evaluation 10 days after application
Description: as §1, §2, §3

Polygonum convolvulus = conditions: I1 250, triasulfuron 3.5, mixture 250 + 3.75 g a.i./ha, evaluation 20 days after application
Description: as §1, §2, §3

Galium aparine = conditions: evaluation 20 days after application
Description: as §1, §2, §3

Matricaria chamomilla = conditions: I1 250, triasulfuron 3.5, mixture 250 + 3.75 g a.i./ha, evaluation 20 days after application
Description: as §1, §2, §3

Lamium purpureum = conditions: I1 250, triasulfuron 3.5, mixture 250 + 3.75 g a.i./ha, evaluation 20 days after application
Description: as §1, §2, §3

winter wheat = tested on: winter wheat
Description: as §1, §2, §3

Capsella bursa-pastoris = conditions: I1 250, triasulfuron 3.5, mixture 250 + 3.75 g a.i./ha, evaluation 20 days after application
Description: as §1, §2, §3

winter barley = conditions: I1 500, dicamba 30, mixture 500 + 30 g a.i./ha, evaluation 20 days after application
Experimental: (§4) The herbicidal action to be expected We for a given combination of two herbicides can be calculated as follows (see COLBY, S. R., “Calculating synergistic and antagonistic response of herbicide combinations”, Weeds 15, pages 20-22, 1967): […] Post-emergence application of mixtures of a herbicide of formula I wherein R is CH3; […] R2 is 3-acetonitrile; and R3 and R4 are hydrogen (=herbicide no. […] The test plants are grown to the 2- to 3-leaf stage in plastics pots under greenhouse conditions. A standard soil is used as cultivation substrate. At the 2- to 3-leaf stage, the herbicides are applied to the test plants on their own and as a mixture. The application is carried out using an aqueous suspension of the test compounds in 500 litres of water/ha. The rates of application depend on the optimum doses ascertained under field conditions and greenhouse conditions.

Veronica persica = conditions: I1 500, dicamba 30, mixture 500 + 30 g a.i./ha, evaluation 20 days after application
Experimental: as §4

Raphnus raphanistrum = conditions: I1 500, dicamba 30, mixture 500 + 30 g a.i./ha, evaluation 20 days after application
Experimental: as §4

Stellaria media = conditions: I1 500, dicamba 30, mixture 500 + 30 g a.i./ha, evaluation 20 days after application
Experimental: as §4

Viola tricolor = conditions: I1 500, dicamba 30, mixture 500 + 30 g a.i./ha, evaluation 20 days after application
Experimental: as §4

SMILES	% action, Kochia scop. (Kochia scoparia)	% action, H. wheat (hard wheat)	% action, Polyg. conv. (Polygonum convolvulus)	% action, Gal. apar. (Galium aparine; I1 250, triasulfuron 3.5, mixture 250 + 3.75 g a.i./ha)	% action, Matr. cham. (Matricaria chamomilla)	% action, Lamium purpur. (Lamium purpureum)	% action, W. wheat (winter wheat; I1 250, triasulfuron 3.5, mixture 250 + 3.75 g a.i./ha, evaluation 10 days after application)	% action, Caps. bursa-past. (Capsella bursa-pastoris)	% action, Barley (winter barley)	% action, Veronica persica (Veronica persica)	% action, Raphnus raphan. (Raphnus raphanistrum)	% action, Stellaria media (Stellaria media)	% action, Viola tric. (Viola tricolor)	% action, Galium aparine (Galium aparine; I1 500, dicamba 30, mixture 500 + 30 g a.i./ha)	% action, Wheat (winter wheat; I1 500, dicamba 30, mixture 500 + 30 g a.i./ha, evaluation 20 days after application, 100%=plant has died)
COc1nc(C)nc(NC(=O)NS(=O)(=O)c2ccccc2OCCCl)n1 [triasulfuron]	95%	0%	80%	70%	95%	90%	0%	98%							
COc1c(Cl)ccc(Cl)c1C(=O)O [dicamba]									10%	20%	20%	20%	0%	40%	0%
